{"source": "patent US20150209403A1", "about": "“Dose Adjustment” (AbbVie Inc., priority 2014, published 2015)", "key": {"[1]": {"experiment": "Drug interaction study of 3D regimen with carbamazepine (CBZ)", "format": "in vivo, human", "procedure": "Single doses of the 3D regimen (Compound 1/r/ombitasvir 150/100/25 mg+dasabuvir 250 mg) were administered alone and in the presence of steady state CBZ 200 mg BID in 12 healthy subjects. Drug concentrations were determined from blood samples collected on multiple study days and PK parameters were estimated by noncompartmental analyses. Safety was assessed (adverse events, vital signs, ECG, etc.) throughout the study."}, "[2]": {"experiment": "DDI studies of 3D regimen with HIV-1 protease inhibitors (ATV, DRV, LPV/r)", "conditions": "for Cmax, AUC and Ctrough, % change: HIV PI co-administered with 3D regimen; for tolerability: co-administration with 3D regimen; for Total bilirubin elevation Grade 3, subjects: 3D regimen DDI study"}, "[3]": {"experiment": "DDI studies of 3D regimen with HIV-1 N(t)RTIs, NNRTIs and INSTI", "format": "in vivo, human", "conditions": "for exposures (Cmax and AUCτ), % change: both; for exposures (Cmax and AUCτ), % change / exposures (Cmax and AUCτ), effect: human, in vivo"}, "[4]": {"experiment": "Drug interaction study of 3D or 2D regimen with omeprazole", "conditions": "human, in vivo, 40 mg", "procedure": "In 24 healthy volunteers omeprazole (40 mg) were administered on day 1 and days 20-24. The 3D or 2D regimen (Compound 1/r 150/100 mg QD+ombitasvir 25 mg QD±dasabuvir 250 mg BID) was administered on days 6-24. Intensive PK sampling was performed for study drugs when dosed alone and during coadministration and parameters estimated by noncompartmental analyses. Safety was evaluated through assessment of adverse events, vital signs, ECG and clinical laboratory tests."}, "[5]": {"experiment": "Drug interaction study of 3D or 2D with ketoconazole (KTZ)", "format": "in vivo, human", "procedure": "Single doses of Compound 1/r/ombitasvir 150/100/25 mg+/−dasabuvir 250 mg were administered alone and in the presence of steady state KTZ 400 mg QD in 24 healthy volunteers. Drug concentrations were determined from intensive blood samples and PK parameters were estimated by noncompartmental analyses. Safety assessment (adverse events, clinical labs, vital signs, ECG) was done throughout the study."}, "[6]": {"experiment": "Drug interaction study of pravastatin and rosuvastatin with 3D or 2D", "format": "in vivo, human", "procedure": "After a washout, multiple doses of pravastatin (10 mg QD, N=12) and rosuvastatin (5 mg QD, N=12) were administered with and without 3D or 2D to steady state in Period 2. […] Intensive PK sampling was performed in both periods and PK parameters estimated by noncompartmental analyses. Safety was evaluated through assessment of adverse events, vital signs, ECG and clinical laboratory tests."}, "[7]": {"experiment": "Drug interaction study of 3D or 2D regimen with digoxin", "format": "in vivo, human", "conditions": "healthy volunteers", "procedure": "Single doses of digoxin (0.5 mg) were administered alone and in presence of steady state Compound 1/r 150/100 mg QD+ombitasvir 25 mg QD+/−dasabuvir […] BID in 24 healthy volunteers. Drug concentrations were\ndetermined from intensive blood samples collected on multiple study days and PK parameters were estimated by noncompartmental analyses. Safety was assessed (adverse events, vital signs, ECG, etc.) throughout the study."}, "[8]": {"conditions": "RPV 75 mg QD; cited from earlier work"}, "[9]": {"conditions": "human, in vivo", "text": "Safety was monitored throughout the study."}, "[10]": {"conditions": "LPV/r 800/200 mg QPM with 3D regimen"}, "[11]": {"conditions": "single dose 3D or 2D with steady state KTZ 400 mg QD"}}, "data": [{"smiles": "NC(=O)N1c2ccccc2C=Cc2ccccc21", "note": "[CBZ, Carbamazepine]", "values": [{"measurement": "Increases in ALT and AST, peak", "setting": "[1]; 3D coadministered with CBZ", "value": "Grade 3 in 1 subject"}, {"measurement": "exposures, % increase", "setting": "[1]; CBZ with 3D", "value": "≤ 17", "unit": "%"}, {"measurement": "tolerability", "setting": "[1]; coadministration of 3D with CBZ", "value": "generally tolerated"}]}, {"smiles": "Cc1cccc(C)c1OCC(=O)N[C@@H](Cc1ccccc1)[C@@H](O)C[C@H](Cc1ccccc1)NC(=O)[C@H](C(C)C)N1CCCNC1=O", "note": "[LPV, Lopinavir]", "values": [{"measurement": "Cmax, AUC and Ctrough, % change", "setting": "[2]", "value": "≤ 15", "unit": "%"}, {"measurement": "Ctrough versus values observed with LPV/r 400/100 mg BID administered alone", "setting": "[2]; [10]", "value": "comparable"}, {"measurement": "Ctrough, % higher", "setting": "[2]; [10]", "value": 218, "unit": "%"}]}, {"smiles": "Cc1cnc(C(=O)N[C@H]2CCCCC/C=C\\[C@@H]3C[C@@]3(C(=O)NS(=O)(=O)C3CC3)NC(=O)[C@@H]3C[C@@H](Oc4nc5ccccc5c5ccccc45)CN3C2=O)cn1", "note": "[Compound 1, (2R,6S,13aS,14aR,16aS,Z)—N-(cyclopropylsulfonyl)-6-(5-methylpyrazine-2-carboxamido)-5,16-dioxo-2-(phenanthridin-6-yloxy)-1,2,3,5,6,7,8,9,10,11,13a,14,14a,15,16,16a-hexadecahydrocyclopropa[e]pyrrolo[1,2-a][1,4]diazacyclopentadecine-14a-carboxamide]", "values": [{"measurement": "exposures (Cmax and AUCτ), % higher", "setting": "[2]; 3D regimen with LPV/r QPM or BID", "value": "≤ 117", "unit": "%"}, {"measurement": "exposures (Cmax and AUCτ), % change", "setting": "[3]", "value": "up to ±32%"}, {"measurement": "exposures (Cmax and AUCτ), effect", "setting": "[3]", "value": "not affected"}, {"measurement": "Cmax, AUC or Ctrough, % change", "setting": "[4]", "value": "< 20", "unit": "%"}, {"measurement": "AUCinf increased by", "setting": "[5]; [11]", "value": "98-116%"}, {"measurement": "Cmax increased by", "setting": "[5]; single dose 3D or 2D with steady state KTZ 400 mg QD, healthy volunteers", "value": "37-72%"}]}, {"smiles": "CC[C@H](C)C(=O)O[C@H]1C[C@H](O)C=C2C=C[C@H](C)[C@H](CC[C@@H](O)C[C@@H](O)CC(=O)O)[C@H]21", "note": "[Pravastatin]", "values": [{"measurement": "AUC, % higher", "setting": "[6]; statin with 3D or 2D", "value": "~80", "unit": "%"}, {"measurement": "Cmax, % higher", "setting": "[6]; statin with 3D or 2D", "value": "about 40%"}]}, {"smiles": "C[C@H]1O[C@@H](O[C@H]2[C@@H](O)C[C@H](O[C@H]3[C@@H](O)C[C@H](O[C@H]4CC[C@@]5(C)[C@H](CC[C@@H]6[C@@H]5C[C@@H](O)[C@]5(C)[C@@H](C7=CC(=O)OC7)CC[C@]65O)C4)O[C@@H]3C)O[C@@H]2C)C[C@H](O)[C@@H]1O", "note": "[digoxin]", "values": [{"measurement": "exposures (Cmax and AUCinf) increased by", "setting": "[7]; digoxin 0.5 mg single dose with 2D", "value": "24-58%"}, {"measurement": "exposures (Cmax and AUCinf) increased by", "setting": "[7]; digoxin 0.5 mg single dose with 2D, listed as Digoxin", "value": "≤ 58", "unit": "%"}, {"measurement": "exposures (Cmax and AUCinf) increased by", "setting": "[7]; digoxin 0.5 mg single dose with 3D", "value": "15-16%"}, {"measurement": "exposures (Cmax and AUCinf) increased by", "setting": "[7]; digoxin 0.5 mg single dose with 3D, listed as Digoxin", "value": "≤ 16", "unit": "%"}]}, {"smiles": "CC(=O)N1CCN(c2ccc(OCC3COC(Cn4ccnc4)(c4ccc(Cl)cc4Cl)O3)cc2)CC1", "note": "(centres unmarked) [KTZ, Ketoconazole]", "values": [{"measurement": "AUC24 increased by", "setting": "[5]; in vivo", "value": "105-117%"}, {"measurement": "Cmax, % change", "setting": "[5]; in vivo", "value": "< 20", "unit": "%"}]}, {"smiles": "Cc1cc(/C=C/C#N)cc(C)c1Nc1ccnc(Nc2ccc(C#N)cc2)n1", "note": "[RPV, Rilpivirine]", "values": [{"measurement": "Cmax, fold higher than Cmax with RPV 25 mg QD", "setting": "[8]", "value": "approximately 2.6 fold"}, {"measurement": "QTcF increase", "setting": "[8]", "value": 10.7, "unit": "ms"}]}, {"smiles": "CC(C)c1nc(N(C)S(C)(=O)=O)nc(-c2ccc(F)cc2)c1/C=C/[C@@H](O)C[C@@H](O)CC(=O)O", "note": "[Rosuvastatin]", "values": [{"measurement": "AUC, % higher", "setting": "[6]; statin with 2D", "value": 32, "unit": "%"}, {"measurement": "Cmax, % higher", "setting": "[6]; statin with 2D", "value": 161, "unit": "%"}, {"measurement": "AUC, % higher", "setting": "[6]; statin with 3D", "value": 159, "unit": "%"}, {"measurement": "Cmax, % higher", "setting": "[6]; statin with 3D", "value": 613, "unit": "%"}]}, {"smiles": "CC(C)CN(C[C@@H](O)[C@H](Cc1ccccc1)NC(=O)O[C@H]1CO[C@H]2OCC[C@H]21)S(=O)(=O)c1ccc(N)cc1", "note": "[DRV, Darunavir]", "values": [{"measurement": "tolerability", "setting": "[2]", "value": "generally well tolerated"}]}, {"smiles": "COC(=O)N[C@H](C(=O)N1CCC[C@H]1C(=O)Nc1ccc([C@@H]2CC[C@@H](c3ccc(NC(=O)[C@@H]4CCCN4C(=O)[C@@H](NC(=O)OC)C(C)C)cc3)N2c2ccc(C(C)(C)C)cc2)cc1)C(C)C", "note": "[Compound 3]", "values": [{"measurement": "exposures (Cmax and AUCτ), % change", "setting": "[3]", "value": "up to ±11%"}, {"measurement": "exposures (Cmax and AUCτ), effect", "setting": "[3]", "value": "not affected"}, {"measurement": "Exposures increased by", "setting": "[5]; [11]", "value": "up to 26%"}]}, {"smiles": "CC(C)c1nc(CN(C)C(=O)N[C@H](C(=O)N[C@@H](Cc2ccccc2)C[C@H](O)[C@H](Cc2ccccc2)NC(=O)OCc2cncs2)C(C)C)cs1", "note": "[ritonavir]", "values": [{"measurement": "exposures (Cmax and AUCτ), % change", "setting": "[3]", "value": "±17%"}, {"measurement": "exposures (Cmax and AUCτ), effect", "setting": "[3]", "value": "not affected"}, {"measurement": "Exposures increased by", "setting": "[5]; [11]", "value": "27-57%"}]}, {"smiles": "C=CC[C@@H]1/C=C(\\C)C[C@H](C)C[C@H](OC)[C@H]2O[C@@](O)(C(=O)C(=O)N3CCCC[C@H]3C(=O)O[C@H](/C(C)=C/[C@@H]3CC[C@@H](O)[C@H](OC)C3)[C@H](C)[C@@H](O)CC1=O)[C@H](C)C[C@@H]2OC", "note": "[tacrolimus]", "values": [{"measurement": "tacrolimus DN_AUCinf, fold of tacrolimus exposure when administered alone", "setting": "[9]", "value": "57-86 fold"}, {"measurement": "tacrolimus DN_Cmax, fold of tacrolimus exposure when administered alone", "setting": "[9]", "value": "3.7-4.3 fold"}, {"measurement": "tacrolimus DN_C24, fold of tacrolimus exposure when administered alone", "setting": "[9]; 24 h", "value": "17-25 fold"}]}, {"smiles": "COc1c(-c2ccc3cc(NS(C)(=O)=O)ccc3c2)cc(-n2ccc(=O)[nH]c2=O)cc1C(C)(C)C", "note": "[Compound 2, N-(6-(3-tert-butyl-5-(2,4-dioxo-3,4-dihydropyrimidin-1(2H)-yl)-2-methoxyphenyl)naphthalen-2-yl)methanesulfonamide]", "values": [{"measurement": "exposures (Cmax and AUCτ), % change", "setting": "[3]", "value": "up to ±18%"}, {"measurement": "exposures (Cmax and AUCτ), effect", "setting": "[3]", "value": "not affected"}, {"measurement": "Cmax, AUC or Ctrough, % change", "setting": "[4]", "value": "< 20", "unit": "%"}, {"measurement": "Exposures increased by", "setting": "[5]; [11]", "value": "up to 42%"}]}, {"smiles": "COC(=O)N[C@H](C(=O)N[C@@H](Cc1ccccc1)[C@@H](O)CN(Cc1ccc(-c2ccccn2)cc1)NC(=O)[C@@H](NC(=O)OC)C(C)(C)C)C(C)(C)C", "note": "[ATV, Atazanavir]", "values": [{"measurement": "Total bilirubin elevation Grade 3, subjects", "setting": "[2]; ATV QD arm", "value": "10/24"}, {"measurement": "Total bilirubin elevation Grade 3, subjects", "setting": "[2]; ATV QPM arm", "value": "16/24"}, {"measurement": "Ctrough, % higher", "setting": "[2]; ATV+RTV QPM with 3D regimen", "value": 68, "unit": "%"}, {"measurement": "Cmax, AUC and Ctrough, % change", "setting": "[2]", "value": "≥ 20", "unit": "%"}, {"measurement": "tolerability", "setting": "[2]", "value": "generally well tolerated"}]}, {"smiles": "Cc1nnc(C(=O)NC(C)(C)c2nc(C(=O)NCc3ccc(F)cc3)c(O)c(=O)n2C)o1", "note": "[RAL, Raltegravir]", "values": [{"measurement": "treatment discontinuations / premature discontinuation due to AE", "setting": "[3]; co-administration of 3D regimen with HIV-1 ARV", "value": "no treatment discontinuations"}, {"measurement": "tolerability", "setting": "[3]; co-administration with 3D regimen", "value": "generally well tolerated"}]}]}
